SMILES strings stand for the structures.

Results on 22 compounds are retold here after patent publication US20260217698A1 (BEYANG THERAPEUTICS CO., LTD., priority 2022, published 2026).

One series concerns the target VEGFR2 (Homo sapiens, UniProt P35968). The experiment in a line: Kinase inhibition, Mobility Shift Assay/IMAP, VEGFR2. It counts as biochemical. Also noted: purchased Carna 08-191. The text has this: (§1) This assay directly monitored the ability of compounds to inhibit kinase phosphorylation by measuring non-phosphorylated and phosphorylated substrates in kinase reactions by using Mobility Shift Assays/IMAP™ analysis.
(§2) Read the conversion ratio data on CaliperEZ Reader II. Convert conversion rates into inhibition ratio data.
(§3) “Min” indicates the readout of the control well without the addition of enzymes; and “Max” indicates the readout of the control well with the addition of DMSO Fit IC50 values with XL Fit excel add-in version […].
(§4) X indicates the log value of compound concentration, and Y indicates the inhibition ratio (% inhibition).

The next series deals with T1, EGFR (Homo sapiens, UniProt P00533).
T1 construct: purchased Carna 08-115
As to the kind of experiment: Kinase inhibition, Mobility Shift Assay/IMAP, EGFR. Format: biochemical.
From the text: as §1, §2, §3, §4

The next series concerns the target T2, TIE2 (Homo sapiens, UniProt Q02763).
T2 construct: purchased BPS 40270
The experiment in a line: Kinase inhibition, Mobility Shift Assay/IMAP, TIE2. It counts as biochemical.
From the text: as §1, §2, §3, §4

The next series concerns melanin. As to the kind of experiment: Binding capacity of compounds to melanin. It counts as in vitro ADME, cuttlefish (Sepia officinalis). The settings on record: cuttlefish (Sepia officinalis), melanin suspension (1 mg/mL); 1 mg/mL melanin in PBS pH 7.4, 2 μM compound, 2 h at 37° C.; read-out: Fu % (percentage of free drug). The text has this: Pigmented eye tissues contain melanin in intracellular melanosomes. Drugs bind to melanin to varying degrees, ranging from non-binding to extensive binding. Therefore, melanin binding is an important feature that affects drug delivery and biodistribution in the eye. The binding capacity of the compound to the melanin must be considered in the development of ophthalmic drugs.
Melanin was derived from the melanin of cuttlefish (Sepia officinalis) and was commercially available from Sigma Aldrich (St Louis, MO).
First, prepare 1 mg/mL melanin suspension with PBS (pH 7.4). As a washing step for the matrix, centrifuge the suspended particles for 5 min at 3000 rpm. Resuspend the resulting particles in a fresh PBS buffer, heat to 37° C. over continuous shaking and incubate it for 1 h. Accurately pipette 2 μL of the test stock solution (0.1 mM) into 98 μL of melanin suspension (1 mg/mL) to achieve a final incubation concentration of 2 μM. Similarly, accurately pipette 2 μL of the stock solution (0.1 mM) to 98 μL of PBS buffer (containing 0.1% BSA) as a blank control sample. Incubate the samples in a shaker (80-90 rpm) for 2 h at 37° C. Then, centrifuge the samples at room temperature. Pipette 50 μL of the supernatant and add 50 μL of precipitant (containing an internal standard). After protein precipitation of all the above samples, centrifuge the samples to collect the supernatants, dilute the supernatants with water (if necessary) and inject them for analysis. At the same time, measure the positive controls, including the high-binding compounds Sunitinib and chloroquine and the low-binding compound celecoxib. Establish an LC-MS/MS method for determining compound concentrations, and calibrate the peak area ratio of analyte/internal standard (Analyte/AIS) in the measured sample by the dilution factor to take it as an alternative concentration for the sample for data processing. The binding rate (Fb) of a compound in melanin was calculated as: […]
Ctest was the concentration of the compound in the melanin-incubated sample or the peak area ratio of the test compound to the internal standard. Ccontrol was the concentration of the compound in the blank control sample or the peak area ratio of the test compound to the internal standard. […]

T2 sequence (Q02763 23-1124): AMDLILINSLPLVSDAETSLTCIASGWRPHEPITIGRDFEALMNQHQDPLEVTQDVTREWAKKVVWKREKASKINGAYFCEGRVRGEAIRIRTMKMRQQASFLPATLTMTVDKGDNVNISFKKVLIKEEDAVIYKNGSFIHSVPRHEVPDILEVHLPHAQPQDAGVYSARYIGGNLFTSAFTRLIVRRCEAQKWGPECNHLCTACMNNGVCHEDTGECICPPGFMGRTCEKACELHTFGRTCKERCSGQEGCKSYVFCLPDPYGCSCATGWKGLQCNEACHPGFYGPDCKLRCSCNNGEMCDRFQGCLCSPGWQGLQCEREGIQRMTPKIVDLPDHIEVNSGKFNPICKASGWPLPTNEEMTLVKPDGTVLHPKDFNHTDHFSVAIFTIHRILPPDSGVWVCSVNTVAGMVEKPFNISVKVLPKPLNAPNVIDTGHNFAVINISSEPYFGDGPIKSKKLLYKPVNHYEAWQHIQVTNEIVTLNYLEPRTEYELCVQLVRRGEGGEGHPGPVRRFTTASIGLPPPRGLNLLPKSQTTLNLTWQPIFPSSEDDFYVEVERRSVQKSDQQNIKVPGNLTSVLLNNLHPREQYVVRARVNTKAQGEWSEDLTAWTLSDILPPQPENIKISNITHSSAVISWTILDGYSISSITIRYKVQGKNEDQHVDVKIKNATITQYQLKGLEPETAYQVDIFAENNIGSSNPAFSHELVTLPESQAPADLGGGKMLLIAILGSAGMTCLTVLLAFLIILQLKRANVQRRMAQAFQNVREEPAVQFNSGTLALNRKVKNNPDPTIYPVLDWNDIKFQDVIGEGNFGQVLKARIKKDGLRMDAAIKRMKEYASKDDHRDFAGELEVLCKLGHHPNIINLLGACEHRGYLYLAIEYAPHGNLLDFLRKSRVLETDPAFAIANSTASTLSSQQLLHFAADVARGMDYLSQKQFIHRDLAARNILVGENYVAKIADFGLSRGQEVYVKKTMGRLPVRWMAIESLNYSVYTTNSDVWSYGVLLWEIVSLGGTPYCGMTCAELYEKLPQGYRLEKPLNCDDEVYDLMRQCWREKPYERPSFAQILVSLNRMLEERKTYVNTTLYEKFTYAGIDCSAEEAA
VEGFR2, sequence (P35968 790-1356 limits assumed): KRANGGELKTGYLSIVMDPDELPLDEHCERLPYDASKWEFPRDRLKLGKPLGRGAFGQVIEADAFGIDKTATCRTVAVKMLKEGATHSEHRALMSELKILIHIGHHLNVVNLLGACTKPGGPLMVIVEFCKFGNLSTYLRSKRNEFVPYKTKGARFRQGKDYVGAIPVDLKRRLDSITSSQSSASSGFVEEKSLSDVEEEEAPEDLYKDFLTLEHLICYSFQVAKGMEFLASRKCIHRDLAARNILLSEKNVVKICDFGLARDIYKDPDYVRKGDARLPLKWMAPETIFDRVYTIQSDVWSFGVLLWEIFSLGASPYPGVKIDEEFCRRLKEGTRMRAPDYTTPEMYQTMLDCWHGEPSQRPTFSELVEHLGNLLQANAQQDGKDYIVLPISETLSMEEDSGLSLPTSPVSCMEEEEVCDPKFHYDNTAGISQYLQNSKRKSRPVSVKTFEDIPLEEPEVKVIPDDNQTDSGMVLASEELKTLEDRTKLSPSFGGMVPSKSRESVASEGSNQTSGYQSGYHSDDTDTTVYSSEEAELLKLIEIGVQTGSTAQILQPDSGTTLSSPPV
T1 sequence (P00533 669-1210 limits assumed): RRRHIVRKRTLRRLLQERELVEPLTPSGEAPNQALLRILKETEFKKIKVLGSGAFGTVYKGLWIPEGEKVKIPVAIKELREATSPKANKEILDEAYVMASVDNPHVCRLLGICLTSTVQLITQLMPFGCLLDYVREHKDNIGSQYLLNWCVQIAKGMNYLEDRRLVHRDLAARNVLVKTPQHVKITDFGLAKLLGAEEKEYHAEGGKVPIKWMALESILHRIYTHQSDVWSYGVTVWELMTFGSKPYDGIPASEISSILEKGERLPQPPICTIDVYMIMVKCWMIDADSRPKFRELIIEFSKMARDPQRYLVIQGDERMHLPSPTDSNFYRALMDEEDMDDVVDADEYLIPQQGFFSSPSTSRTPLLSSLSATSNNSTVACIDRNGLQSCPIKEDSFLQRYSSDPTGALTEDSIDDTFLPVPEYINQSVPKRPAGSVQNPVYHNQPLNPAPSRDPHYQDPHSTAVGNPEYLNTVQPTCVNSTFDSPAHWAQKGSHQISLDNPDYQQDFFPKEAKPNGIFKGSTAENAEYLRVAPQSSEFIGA

`COc1ccc(COc2nsc(NC(=O)NCCCCN3CCCC3)c2C(N)=O)cn1` [Compound T033]: the IC50 (commonly the concentration that inhibits the measured activity by half) at VEGFR2 was determined as 51.9 nM; on EGFR, 54900 nM; at TIE2, 1460 nM.

In the case of `NC(=O)c1c(OCc2c(F)cc(Br)cc2F)nsc1Nc1cncc(OCCN2CCCC2)c1` [Compound T045, 3-((4-bromo-2,6-difluorobenzyl)oxy)-5-((5-(2-(pyrrolidin-1-yl)ethoxy)pyridin-3-yl)amino)isothiazole-4-carboxamide], the IC50 at VEGFR2 stood at 22.1 nM; at TIE2, 230 nM.

In the case of `NC(=O)c1c(OCc2cc(Cl)c3cncn3c2)nsc1NC(=O)NCCCCN1CCCC1` [Compound T051, 3-((8-chloroimidazo[1,5-a]pyridin-6-yl)methoxy)-5-(3-(4-(pyrrolidin-1-yl)butyl)ureido)isothiazole-4-carboxamide], at TIE2, the IC50 turned out to be 3210 nM.

For the compound `COc1cc(COc2nsc(NC(=O)NCCCCN3CC[C@H](F)C3)c2C(N)=O)cc(OC)c1` [Compound T062, (S)-3-((3,5-dimethoxybenzyl)oxy)-5-(3-(4-(3-fluoropyrrolidin-1-yl)butyl)ureido)isothiazole-4-carboxamide], the IC50 on VEGFR2 was 58.8 nM; on EGFR, greater than 60000 nM. Besides, the fraction unbound at 2 h, 2 μM in the series with melanin was determined as 0.0195.

On to `CN1CCN(CCCNC(=O)Nc2snc(OCc3cccc(C(=O)C4CC4)c3)c2C(N)=O)CC1` [Compound T086, 3-((3-(cyclopropanecarbonyl)benzyl)oxy)-5-(3-(3-(4-methylpiperazin-1-yl)propyl)ureido)isothiazole-4-carboxamide], for which the values for the IC50 on EGFR and at TIE2 were 6830 nM and 895 nM, respectively.

For the compound `CCOc1ccc(F)c(COc2nsc(NC(=O)NCCCCN3CCCC3)c2C(N)=O)c1` [Compound T096, 3-((5-ethoxy-2-fluorobenzyl)oxy)-5-(3-(4-(pyrrolidin-1-yl)butyl)ureido)isothiazole-4-carboxamide], the fraction unbound at 2 h, 2 μM in the series on melanin worked out at 0.0792.

In the case of `NC(=O)c1c(OCc2ccc3c(c2)OCCC3)nsc1NC(=O)NCCCCN1CCCC1` [Compound T097, 3-(chroman-7-ylmethoxy)-5-(4-pyrrolidin-1-ylbutylcarbamoylamino)isothiazole-4-carboxamide], the fraction unbound at 2 h, 2 μM with melanin was determined as 0.0817.

For the compound `NC(=O)c1c(OCc2cc(C(=O)NC3CC3)ccc2F)nsc1NC(=O)NCCCCN1CC[C@H](O)C1` [Compound T099], the fraction unbound at 2 h, 2 μM in the series on melanin is 0.0884.

Regarding `NC(=O)c1c(OCc2cc(C(=O)NC3CC3)ccc2F)nsc1NC(=O)NCCCN1CC[C@H](O)C1` [Compound T105, 3-[[5-(cyclopropylcarbamoyl)-2-fluoro-phenyl]methoxy]-5-[3-[(3S)-3-hydroxypyrrolidin-1-yl]propylcarbamoylamino]isothiazole-4-carboxamide], the concentration for half-maximal inhibition (IC50) on VEGFR2 turned out to be 1.6 nM; on EGFR it was 11900 nM. The fraction unbound at 2 h, 2 μM in the series on melanin came out at 0.0316.

Turning to `NC(=O)c1c(OCc2cc(C(=O)NC3CC3)ccc2F)nsc1NC(=O)NCCCN1CC[C@@H](O)C1` [Compound T106, 3-[[5-(cyclopropylcarbamoyl)-2-fluoro-phenyl]methoxy]-5-[3-[(3R)-3-hydroxypyrrolidin-1-yl]propylcarbamoylamino]isothiazole-4-carboxamide], the concentration for half-maximal inhibition (IC50) stood at 1.64 nM on VEGFR2 and 20100 nM on EGFR. Moreover, in the series on melanin, the fraction unbound at 2 h, 2 μM came out at 0.0172.

Take `COc1ccc(F)c(COc2nsc(NC(=O)NCCC3CCN(C)CC3)c2C(N)=O)c1F` [Compound T109, 3-[(2,6-difluoro-3-methoxy-phenyl)methoxy]-5-[2-(1-methyl-4-piperidyl)ethylcarbamoylamino]isothiazole-4-carboxamide]: the values for the IC50 at VEGFR2 and on EGFR were 13.8 nM and 7450 nM, respectively. Further, the fraction unbound at 2 h, 2 μM with melanin turned out to be 0.0435.

Take `CN1CCN(CCCNC(=O)Nc2snc(OCc3cccc(C(=O)CC4CC4)c3)c2C(N)=O)CC1` [Compound T110, 3-[[3-(2-cyclopropylacetyl)phenyl]methoxy]-5-[3-(4-methylpiperazin-1-yl)propylcarbamoylamino]isothiazole-4-carboxamide]: in the series with melanin, the fraction unbound at 2 h, 2 μM came to 0.0485.

On to `COc1cc(OC)c(F)c(COc2nsc(NC(=O)NCCCN3CCN(C)CC3)c2C(N)=O)c1F` [Compound T117, 3-[(2,6-difluoro-3,5-dimethoxy-phenyl)methoxy]-5-[3-(4-methylpiperazin-1-yl)propylcarbamoylamino]isothiazole-4-carboxamide], for which the 50% inhibitory concentration (IC50) at VEGFR2 is 2.54 nM; on EGFR, greater than 60000 nM. Also, the fraction unbound at 2 h, 2 μM in the series with melanin came to 0.0207.

As to `COc1cc(OC)c(F)c(COc2nsc(NC(=O)NCCCCN3CC[C@H](O)C3)c2C(N)=O)c1F` [Compound T136, 3-[(2,6-difluoro-3,5-dimethoxy-phenyl)methoxy]-5-[4-[(3S)-3-hydroxypyrrolidin-1-yl]butylcarbamoylamino]isothiazole-4-carboxamide], the 50% inhibitory concentration (IC50) is 1.8 nM at VEGFR2 and greater than 60000 nM at EGFR. For the same compound, the fraction unbound at 2 h, 2 μM with melanin worked out at 0.0285.

As for `COc1cc(OC)c(F)c(COc2nsc(NC(=O)NCCCCN3CCCC3)c2C(N)=O)c1F` [Compound T137, 3-[(2,6-difluoro-3,5-dimethoxy-phenyl)methoxy]-5-(4-pyrrolidin-1-ylbutylcarbamoylamino)isothiazole-4-carboxamide], the results for the IC50 at VEGFR2 and on EGFR were 2.1 nM and greater than 60000 nM, respectively. Besides, the fraction unbound at 2 h, 2 μM in the series on melanin is 0.0446.

As for `COc1cc(OC)c(F)c(COc2nsc(NC(=O)NCCCC3CCCN3C)c2C(N)=O)c1F` (stereo not shown) [Compound T138, 3-[(2,6-difluoro-3,5-dimethoxy-phenyl)methoxy]-5-[3-(1-methylpyrrolidin-2-yl)propylcarbamoylamino]isothiazole-4-carboxamide], the results for the IC50 at VEGFR2 and at EGFR were 2.6 nM and greater than 60000 nM, respectively. The fraction unbound at 2 h, 2 μM with melanin worked out at 0.0398.

Turning to `CN1CCN(CCCNC(=O)Nc2snc(OCc3cc(C(=O)NC4CC4)ccc3Cl)c2C(N)=O)CC1` [Compound T140, 3-[[2-chloro-5-(cyclopropylcarbamoyl)phenyl]methoxy]-5-[3-(4-methylpiperazin-1-yl)propylcarbamoylamino]isothiazole-4-carboxamide], the results for the IC50 at VEGFR2 and at EGFR were 0.44 nM and 15500 nM, respectively. Further, in the series on melanin, the fraction unbound at 2 h, 2 μM turned out to be 0.0726.

Consider `O=C(NCCCN1CC[C@H](F)C1)Nc1snc(OCc2cc(C(=O)NC3CC3)ccc2F)c1C(=O)O` [Compound T155, 3-[[5-(cyclopropylcarbamoyl)-2-fluoro-phenyl]methoxy]-5-[3-[(3S)-3-fluoropyrrolidin-1-yl]propylcarbamoylamino]isothiazole-4-carboxylic acid], for which the half-maximal inhibitory concentration (IC50) at EGFR and on TIE2 was greater than 60000 nM in each case.

On to `NC(=O)c1c(OCc2ccc(F)c(C(=O)NC3CC3)c2)nsc1NC(=O)NCCCN1CCNCC1` [Compound T160, 3-[[3-(cyclopropylcarbamoyl)-4-fluoro-phenyl]methoxy]-5-(3-piperazin-1-ylpropylcarbamoylamino)isothiazole-4-carboxamide], for which the values for the IC50 on VEGFR2 and on TIE2 were 1.41 nM and 4270 nM, respectively.

Turning to `N#CCCNC(=O)Nc1snc(OCc2cc(C(=O)NC3CC3)ccc2F)c1C(N)=O` [Compound T162, 5-(2-cyanoethylcarbamoylamino)-3-[[5-(cyclopropylcarbamoyl)-2-fluoro-phenyl]methoxy]isothiazole-4-carboxamide], the IC50 at VEGFR2 is 3.05 nM; at TIE2, 7360 nM.

Take `NC(=O)c1c(OCc2cc(C(=O)O)ccc2F)nsc1NC(=O)NCCCN1CC[C@H](F)C1` [Compound T171, 3-[[4-carbamyl-5-[3-[(3S)-3-fluoropyrrolidin-1-yl]propylcarbamylamino]isothiazol-3-yl]oxymethyl]-4-fluoro-benzoic acid]: the half-maximal inhibitory concentration (IC50) on EGFR is 29100 nM; on TIE2 it was 5850 nM.

Turning to `NC(=O)c1c(OCc2cc(C(=O)NC3CC3)ccc2F)nsc1NC(=O)NCCC(=O)O` [Compound T172, 3-[[4-carbamoyl-3-[[5-(cyclopropylcarbamoyl)-2-fluoro-phenyl]methoxy]isothiazol-5-yl]carbamoylamino]propanoic acid], the half-maximal inhibitory concentration (IC50) turned out to be 2.6 nM at VEGFR2 and 3260 nM on TIE2.
